# Assay results: patent US20030017565A1, “COMPOSITION AND METHOD FOR TREATING A POROUS ARTICLE AND USE THEREOF” (priority 1996, published 2003)
# Assays:
# [1] = copper retention rate in Japan cedar sapwood after three leachings (Example 23); assay type: physicochemical; details: pH of treating liquid 4.6, three leachings of 8 hours
# Protocol: Aqueous solutions having the compositions listed in table 15 below were prepared and adjusted to pH 8.5 with sodium hydroxide. Those compositions which contained no ethylenediamine (EDA) nor ethanolamine (MEA) were tested at pH 4.5 since copper is deposited as copper hydroxide in alkaline regions. […] The wood blocks were taken out of the solutions and air-dried at 28 ° C. for 72 hours and then dried in a forced air circulation drier at 60° C. for 48 hours. After the drying, the wood blocks were submerged in 10 fold volume of deionized water at 25° C. with stirring at 300 rpm for 8 hours for leaching. This operation was repeated three times. The rate of copper fixed to wood was calculated from the sum of the amounts of eluted copper ions by the three elution operations to the total amount of copper ions in the solution impregnated in the wood.
# [2] = leaching of Japan cedar blocks after reduced pressure impregnation (Example 3); assay type: physicochemical; details: no LSA, enzyme not added, pH 4.1
# Protocol: The pH was adjusted with sodium hydroxide or sulfuric acid. The reduced pressure impregnation operation was performed by a handy method, i.e., by applying a reduced pressure of 650 to 700 mmHg for 1 hour after dipping the Japan cedar blocks in the treatment liquid and then keeping the blocks at atmospheric pressure for 30 minutes as they were dipped in the treatment liquid. By measuring the weights of each block before and after the impregnation treatment, it was confirmed that as a result of the pressure reduction treatment operation, a sufficient amount of the treating liquid (10 to 14 g) was injected in the blocks. Further, the wood blocks after the impregnation treatment were placed in an incubator at 28° C., for 5 days to effect drying and macromolecularization reaction.
# [3] = leaching of cypress blocks, peroxidase + alcohol oxidase (Example 7); assay type: physicochemical; details: 5 U/ml peroxidase + 5 U/ml alcohol oxidase + 1% methanol; for Elution Rate (%) LSA: pH 8.1-8.8; for Elution Rate (%) Chemical Agent: pH 8.1-8.8, species as bracketed (Copper, Zinc, Boron, H = hinokitiol), else the agent named
# From the text: The peroxidase used was obtained from horse radish (Type II, Sigma) and the alcohol oxidase used was obtained from Candida boidini (Boehringer Mannheim Biochemica).
# [4] = leaching of cypress blocks, bilirubin oxidase (Example 6); assay type: physicochemical; details: for Elution Rate (%) LSA: pH 8.1-8.8; for Elution Rate (%) Chemical Agent: pH 8.1-8.8, species as bracketed (Copper, Zinc, Nickel, Boron, H = hinokitiol), else the agent named
# From the text: Taking the amounts of the lignosulfonic acid (LSA) and chemical agent as injected upon the impregnation treatment as 100%, respectively, the amounts of the substances which were eluted were compared.
# [5] = leaching of cypress blocks, Myrothecium roridum enzyme (Example 5); assay type: physicochemical; details: 40 ppm Example 2 enzyme, 5% LSA; for Elution Rate (%) LSA: pH 8.2-8.8; for Elution Rate (%) Chemical Agent: pH 8.2-8.8, species as bracketed (Copper, H = hinokitiol), else the agent named
# Protocol: (§1) The amounts of the chemical agents and lignosulfonic acid which were eluted were calculated and compared taking the amounts of them injected upon the impregnation treatment as 100%.
# [6] = leaching of Japan cedar blocks treated with LSA and chemical agents (Example 4); assay type: physicochemical; details: 5% LSA; for Elution Rate (%) Chemical Agent: species measured as bracketed (Copper, Zinc, Nickel, Boron, H = hinokitiol), else the agent named
# Protocol: For chemical agents having low solubilities, they were added to aqueous lignosulfonic acid solution after it was warmed to 60 to 90° C., and it was cooled at 25° C. after the chemical agents were suspended, dispersed, dissolved by Vortex-Mixer, […]
# The amount of lignosulfonic acid which leached off was determined by measurement of the absorbance at 280 nm, and the amount of the chemical agent which leached off was determined by complex formation and spectrophotometry using PAN (1-(2-pyridylazo)-2-naphthol, Aldrich Chemical Company) or quinalizarin (Wako Pure Chemicals), separation, identification and determination, using HPLC or gas chromatography, or atomic absorption analysis were performed, followed by calculation of the amount of the chemical agents which was eluted. When the chemical agents had absorption at 280 nm, the concentration of lignosulfonic acid was calculated by measuring the absorbance at 280 nm of the chemical agents of which the concentration was measured by the above-described method and subtracting an influence by the chemical agent from the absorbance at 280 nm of the liquid which was eluted. The amounts of the chemical agents and lignosulfonic acid which were eluted were calculated and compared taking the amounts of them injected upon the impregnation treatment as 100%.
# [7] = leaching of Japan cedar blocks after initial vacuum and pressure impregnation (Example 10); assay type: physicochemical; details: initial vacuum then 10 atm, enzyme added, 5% LSA; for Elution Rate (%) LSA: pH 8.1-8.8; for Elution Rate (%) Chemical Agent: pH 8.1-8.8, species as bracketed (Copper, Zinc, Nickel, H = hinokitiol), else the agent named
# Protocol: A reaction mixture for treating wood containing 30 ppm of the freeze-dried product described in Example 1, 5% of commercially available lignosulfonic acid, and one or more various chemical agents was prepared, and Japan cedar wood blocks (3 cm×3 cm×2 cm, butt end: 3 cm×3 cm) were subjected to pressure reduction (initial vacuum) and impregnation treatment under pressure using the reaction mixture in the same manner as in Examples 3 and 4.
# The pressure reduction and pressurization were performed by setting a vessel for impregnation operation as shown in FIG. 1 in a pressure reactor (5 liter in volume), conducting initial vacuum from 600 to 720 mmHg for 30 minutes using a vacuum pump, tilting the whole apparatus to allow the treatment liquid to flow toward the wood so that the wood blocks can be dipped in the treatment liquid, and then pressurized at 10 atm for 1 hour by flowing high pressure nitrogen gas in the reactor.
# The wood blocks after the impregnation treatment were further subjected to drying/macromolecularization reaction and leaching treatment in the same manner as in Examples 3 and 4. The amounts of the chemical agents and lignosulfonic acid which were eluted were calculated and compared taking the amounts of them injected upon the impregnation treatment as 100%.
# [8] = test system: Tyromyces palustris FEPRI 0507; experiment: antifungal test on treated wood, weight loss; assay type: cell-based; details: leached wood blocks of Example 10, LSA added, enzyme added, pH of treating liquid 8.1-8.8, 26° C., 12 weeks
# Protocol: (§2) After completion of the antifungal operation, the wood blocks were taken out of the incubator and hyphae on the surface thereof were removed sufficiently. After air dried for about 24 hours, the wood blocks were dried sufficiently using a drier and a desiccator in the same manner as described above and their weight was measured. Percent weight loss (%) was calculated by comparing the weight obtained with the weight before the antifungal operation.
# [9] = test system: Coriolus versicolor FEPRI 1030; experiment: antifungal test on treated wood, weight loss; assay type: cell-based; details: leached wood blocks of Example 10, LSA added, enzyme added, pH of treating liquid 8.1-8.8, 26° C., 12 weeks
# Protocol: as §2
# house termite = experiment: termite preventing test on treated wood, weight reduction; assay type: in vivo; details: leached wood blocks of Example 10, LSA added, enzyme added, pH 8.1-8.5, about 40 cm from termite nest, 2 months
# From the text: The wood blocks were placed on the soil at a distance of about 40 cm around the nest of house termite. After they were left to stand for 2 months, termite preventive properties were observed. […] Then, the dry weight thus obtained was compared with the weight of the wood blocks before the placement on the soil, thus calculating a weight reduction rate.
# [10] = leaching of Japan cedar blocks, treating mixture with tung oil (Example 8); assay type: physicochemical; details: Example 1 enzyme, 5% LSA, 2,000 ppm tung oil
# Protocol: as §1
# [11] = in the absence of enzyme (comparison), pH 8.1-8.8
# [12] = in the presence of enzyme, Japan cedar, pH of treating agent 8.1-8.8
# [13] = in the presence of enzyme, pH 8.1-8.8
Molecule,Copper Retention Rate (%) ([1]; enzyme added (20 ppm)),Copper Retention Rate (%) ([1]; enzyme not added),Elution Rate (%) Copper [2] [%],Elution Rate (%) LSA [3] [%],Elution Rate (%) Chemical Agent [3] [%],Elution Rate (%) LSA [4] [%],Elution Rate (%) Chemical Agent [4] [%],Elution Rate (%) LSA [5] [%],Elution Rate (%) Chemical Agent [5] [%],"Elution Rate (%) LSA [6, 11] [%]","Elution Rate (%) Chemical Agent [6, 11] [%]","Elution Rate (%) LSA [6, 12] [%]","Elution Rate (%) Chemical Agent [6, 13] [%]",Elution Rate (%) LSA [7] [%],Elution Rate (%) Chemical Agent [7] [%],Weight Loss (%) Tyromyces palustris [8] [%],Weight Loss (%) Coriolus versicolor [9] [%],Weight Reduction Rate (%) (house termite),Elution Rate (%) LSA ([10]; pH 8.1-8.5) [%],"Elution Rate (%) Chemical Agent ([10]; pH 8.1-8.5, species as bracketed (Copper, Zinc, Nickel, H = hinokitiol), else the agent named) [%]"
"O=S(=O)([O-])[O-].[Cu+2] [0.04 M CuSO4, copper (II) sulfate]",19.3,21.8,58.5,–,–,–,–,–,–,–,–,–,–,–,–,–,–,–,–,–
"O=C(OC[C@H]1O[C@@H](OC(=O)c2cc(O)c(O)c(OC(=O)c3cc(O)c(O)c(O)c3)c2)[C@H](OC(=O)c2cc(O)c(O)c(OC(=O)c3cc(O)c(O)c(O)c3)c2)[C@@H](OC(=O)c2cc(O)c(O)c(OC(=O)c3cc(O)c(O)c(O)c3)c2)[C@@H]1OC(=O)c1cc(O)c(O)c(OC(=O)c2cc(O)c(O)c(O)c2)c1)c1cc(O)c(O)c(OC(=O)c2cc(O)c(O)c(O)c2)c1 [500 ppm Tannic acid, Tannic acid]",–,–,–,9.2,10.3,6.6,8.3,6.8,8.7,24.2,21.0,3.8,4.0,2.3,3.1,12.9,10.8,–,–,–
"CC(C)c1cccc(=O)c(O)c1 [1000 ppm Hinokitiol, Hinokitiol]",–,–,–,4.5,6.2,1.7,5.4,2.2,7.2,24.2,14.4,0.6,3.1,0.4,2.3,2.2,1.5,2.2,1.1,0.5
(+)-Catechin · H2O [1000 ppm (+)-Catechin · H2O],–,–,–,5.3,8.7,4.4,6.3,5.2,6.6,23.4,11.3,2.7,2.8,2.1,2.0,9.9,8.3,–,–,–
